The values below come from ChEMBL document CHEMBL1124038, “Dehydro keto methylene and keto methylene analogues of substance P. Synthesis and biological activity” (J Med Chem, 1988).

A word on the IC50: it is the midpoint of a concentration-inhibition curve. A low value points to greater potency in that assay.

SMILES strings stand for the structures. Numbered stars: 1 amine (or outer) side, 2 acyl side, 3 side chain; on linkers, the order of the positions; unused ones are H or OH. Square brackets hold non-standard residues; d marks the D form. Peptide text beside a SMILES is read from it. X1 = CC(C)C[C@H](CC(=O)CN[*:1])C(=O)[*:2]; pGlu = O=C1CC[C@@H](C(=O)O)N1

For this experiment, the species on record is Rattus norvegicus. Description: Inhibition of the degradation of [125IBH]-SP6-11 in rat hypothalamus preparations. It is filed as functional.
The compound `CCOC(=O)/C(=C\c1ccccc1)CC(=O)[C@H](Cc1ccccc1)NC(=O)c1ccccc1` gave a half-maximal inhibitory concentration (IC50) greater than 200 µM.
As for `O=C1CC[C@H](C(=O)N[C@@H](Cc2ccccc2)C(=O)C/C(=C/c2ccccc2)C(=O)O)N1`, the figure is greater than 200 µM.
Turning to `CCOC(=O)/C(=C\c1ccccc1)CC(=O)[C@H](Cc1ccccc1)NC(=O)[C@H]1CCC(=O)N1`, the 50% inhibitory concentration (IC50) was greater than 200 µM.
Compound `COC(=O)CCC(=O)[C@H](Cc1ccccc1)NC(=O)[C@H](Cc1ccccc1)NC(=O)[C@H]1CCC(=O)N1` returned a 50% inhibitory concentration (IC50) greater than 200 µM.
As for `CSCC[C@H](NC(=O)[C@H](CC(C)C)NC(=O)CNC(=O)/C(=C\c1ccccc1)CC(=O)[C@H](Cc1ccccc1)NC(=O)[C@H]1CCC(=O)N1)C(N)=O`, the figure is 1.8 µM; as for `CSCC[C@H](NC(=O)[C@H](CC(C)C)NC(=O)CNC(=O)[C@@H](CC(=O)[C@H](Cc1ccccc1)NC(=O)[C@H]1CCC(=O)N1)Cc1ccccc1)C(N)=O`, 30 µM; as for `COC(=O)CCC(=O)[C@@H](N)Cc1ccccc1`, greater than 200 µM.
Regarding `CCOC(=O)/C(=C\c1ccccc1)CC(=O)[C@@H](N)Cc1ccccc1`, the concentration for half-maximal inhibition (IC50) was greater than 200 µM.
`CSCC[C@H](NC(=O)[C@@H](CC(=O)CNC(=O)[C@H](Cc1ccccc1)NC(=O)[C@H](Cc1ccccc1)NC(=O)[C@@H]1CCC(=O)N1)CC(C)C)C(N)=O` ([pGlu]FF[X1]M-NH2) showed an IC50 of 50 µM.
